This passage reports solubility and IDR results from patent US20080152714A1, “Pharmaceutical Formulations” (priority 2005, published 2008).

Data set [1] in a line: Solubility of fenofibric acid salts in water at 25° C. The class given is physicochemical. On the procedure:
Solubility Determination: Solubility values of fenofibric acid salts in water were determined at 25° C. The salts were weighed into glass vials and water was added. The suspensions were rotated from end to end for about 2 days in a 25° C. water bath. The pH of the suspensions was measured. The residual solid was then removed via filtration through a 0.45 μm PTFE membrane filter. The resulting saturated solution was diluted appropriately into the HPLC mobile phase, and analyzed by the HPLC assay described below (Table 3). The powder x-ray diffraction pattern of the collected residual solid was recorded at the end of experiment.

The nature of data set [2]: Intrinsic dissolution rate (IDR). It is filed as physicochemical. Particulars: pH 6.8, 50 mM sodium citrate buffer, 37° C.
Protocol: The intrinsic dissolution rate is the rate of dissolution of pharmaceutically acceptable ingredients when conditions such as surface area, agitation or stirring speed, pH and ionic strength of the dissolution medium are held constant.
Pellets of the salts were prepared by compressing ca. 100 mg of the compound in a stainless steel die under 1300 pounds force with a dwell time of one minute. The die containing the tablet was submerged in 400 mL of the dissolution medium at 37° C. The solution was stirred by a paddle at ˜60 rpm. At each time point, 3 mL of sample was withdrawn and filtered. After discarding the first half of the filtrate, the remainder was collected and assayed by HPLC method above. The total volume of the dissolution medium was kept at a constant by replenishing the lost volume at each data point with fresh buffer at 37 C.

Read-outs that look alike come from different tables or passages of the source.

Turning to `C[N+](C)(C)CCO` [Choline], the solubility in data set [1] (read-out: Solubility) is above 300000 µg/mL. In addition, the IDR in data set [2] is given as 14.50 mg/min/cm^2. Consider Tris, for which the solubility in data set [1] worked out at 5450 µg/mL. The same compound registered an IDR in data set [2] of 0.67 mg/min/cm^2.

In the case of `CC(C)(Oc1ccc(C(=O)c2ccc(Cl)cc2)cc1)C(=O)O` [Free acid, 2-[4-(4-chlorobenzoyl)phenoxy]-2-methyl-propanoic acid, reference compound], in data set [1] (read-out: Solubility), the solubility was found to be 265 µg/mL. The compound also registered an IDR in data set [2] of 0.30 mg/min/cm^2.

As to Calcium, the IDR in data set [2] is 0.10 mg/min/cm^2.

As to `CN(C)C(=N)N=C(N)N` [Metformin], in data set [2], the IDR is recorded as 7.09 mg/min/cm^2. Same read-out and setting: the result for `NCCO` [Ethanolamine] reads 8.05 mg/min/cm^2. In the case of `CCN(CC)CCOC(=O)c1ccc(N)cc1` [Procaine], in data set [1] (read-out: Solubility), the solubility was determined as 7200 µg/mL. Moreover, in data set [2], the IDR is on record as 1.06 mg/min/cm^2.
